Measurements reported in patent US20130059830A1, “NOVEL PROLYLCARBOXYPEPTIDASE INHIBITORS” (priority 2010, published 2013).

How the values were obtained:
human PrCP = target: T1, human PrCP (Homo sapiens, UniProt P42785); assay: Prolylcarboxypeptidase (PRCP) enzyme activity assay, fluorescence intensity kinetic assay, human enzyme; type: biochemical; settings: recombinant human PrCP, 15 uM substrate, pH 5.5, 37° C.
T1 construct: made in house
T1 sequence (P42785 46-496): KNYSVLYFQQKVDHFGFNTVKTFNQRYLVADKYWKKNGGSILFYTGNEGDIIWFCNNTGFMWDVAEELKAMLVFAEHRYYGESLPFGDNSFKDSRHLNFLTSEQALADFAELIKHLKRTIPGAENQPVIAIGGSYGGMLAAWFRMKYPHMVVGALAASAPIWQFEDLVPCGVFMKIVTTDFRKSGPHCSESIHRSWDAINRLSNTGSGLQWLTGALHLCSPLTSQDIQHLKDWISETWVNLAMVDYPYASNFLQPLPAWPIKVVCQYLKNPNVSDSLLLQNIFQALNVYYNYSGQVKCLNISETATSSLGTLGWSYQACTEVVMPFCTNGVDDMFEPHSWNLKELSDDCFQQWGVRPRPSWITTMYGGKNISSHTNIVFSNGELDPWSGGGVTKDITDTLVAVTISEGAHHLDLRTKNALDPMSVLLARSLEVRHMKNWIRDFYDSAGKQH
Procedure: The potency of compounds of formula I against PrCP was determined by a fluorescence intensity kinetic assay measuring the IC50 values of PrCP inhibitor test compounds. […] The assay was run on a Perkin Elmer Envision 2103 plate reader using a 320 nm excitation filter and a 405 emission filter. The assay was performed using a Hamilton Star liquid handling workstation. The assay employed the internally quenched fluorescent substrate (1S)-1-carboxy-5-[(2,4-dinitrophenyl)amino]pentyl N-[(7-methoxy-2-oxo-2H-chromen-4-yl)acetyl]-L-alanyl-L-prolinate prepared in house.
The assay was run in a 384-well microtiter plate at 37° C. with a total volume of 50 uL. Final assay concentrations were 0.13 nM human PrCP (CHO) or 0.09 nM mouse PrCP (CHO) enzyme, 15 uM substrate and varying concentrations of inhibitor in buffer containing 10 mM NaOAc, 100 mM NaCl and 19.5 ug/mL BSA at pH 5.5. The assay also contained 2% DMSO used to solubilize the substrate and inhibitor. Inhibitors were prepared in 100% DMSO and serial diluted (in 100% DMSO) to generate 11 point titration curves. Either 39 uL of human or mouse PrCP enzyme was added to the wells of the assay plate, followed by a 1 uL addition of the serially diluted inhibitor and mixed three times using a 30 uL mix volume. The reaction was initiated by the addition of 10 uL substrate and mixed three times using a 30 uL mix volume. The reactions were monitored continuously over 25 min at 37° C. to obtain initial velocities. […] values were calculated by comparing the resulting rates of reaction of the inhibited and control initial velocities.
The enzymes were diluted in a mixture of 10 mM NaOAc (pH 5.5)/100 mM NaCl buffer containing 25 ug/mL bovine serum albumin that had been warmed to 37° C. in a water bath. The PrCP inhibitor test compounds were plated in 100% DMSO with a highest concentration of 500 uM. There were 12 dilution points for each compound tested including a blank with DMSO only. The test compounds from the source titration plate were transferred into the assay reaction plate at a 1:50 dilution using the Hamilton Star workstation and mixed, resulting in a final concentration for the test compounds in the range of 10,000 to 0.066 nM. Likewise, two control compounds were similarly titrated and included in each assay, with final starting concentrations starting at 10,000 nM and 200 nM, respectively. The reaction was initiated by the addition of 75 uM of the (1S)-1-carboxy-5-[(2,4-dinitrophenyl)amino]pentyl N-[(7-methoxy-2-oxo-2H-chromen-4-yl)acetyl]-L-alanyl-L-prolinate substrate, which was diluted in a mixture of 10 mM NaOAc (pH 5.5)/100 mM NaCl that had been warmed to 37° C. in a water bath, dispensed using the Hamilton Star workstation and mixed. The substrate was solubilized in 100% DMSO prior to dilution into the assay. The final assay concentrations in the 50 uL reactions were 15 uM of (1S)-1-carboxy-5-[(2,4-dinitrophenyl)amino]pentyl N-[(7-methoxy-2-oxo-2H-chromen-4-yl)acetyl]-L-alanyl-L-prolinate substrate, 0.13 nM Human PrCP (CHO) or 0.09 nM Mouse PrCP (CHO), and 2% DMSO.

[1] = tested on: obese, leptin deficient mice; settings: systemic administration; cited from earlier work
rats = settings: intracerebroventricular; cited from earlier work

Row | Compound | IC50 (human PrCP) [nM] | overnight food intake [1] | overnight food intake (rats)
1 | Fc1ccc(-c2cc([C@H]3CC[C@H](c4ccccc4)NC3)n(-c3ncccn3)n2)cc1 (mixture of isomers) [Example 4] | 4.1 |  | 
2 | CNC(=O)N1C[C@@H](c2cc(-c3ccc(F)cc3)nn2-c2ncccn2)CC[C@@H]1c1ccccc1 (mixture of isomers) [Example 95] | 10 |  | 
3 | t-butyl carbamate-prolyl prolinal [BPP] |  | suppression of overnight food intake | suppression of overnight food intake
4 | O=C(Cc1cccc2ccccc12)N1CCCC(c2cc(-c3ccc(F)cc3)nn2-c2ncccn2)C1 (stereo not shown) [Example 17] | 1.2 |  | 
5 | CC(C)(C)OC(=O)N1C[C@H](c2cc(-c3ccc(F)cc3)nn2-c2ncccn2)CC[C@@H]1CCc1ccccc1 (racemic) [Example 5, tert-Butyl 5-[3-(4-fluorophenyl)-1-(pyrimidin-2-yl)-1H-pyrazol-5-yl]-2-(2-phenylethyl)piperidine-1-carboxylate] | 8 |  | 
6 | O=C(NCCc1ccc(F)cc1)N1CCCC(c2cc(-c3ccc(F)cc3)nn2-c2ncccn2)C1 (stereo not shown) [Example 82] | 27 |  | 
7 | O=C(CC1CCCCC1)N1CCCC(c2cc(-c3ccc(F)cc3)nn2-c2ncccn2)C1 (stereo not shown) [Example 36] | 30 |  | 
8 | COC(=O)N1C[C@@H](c2cc(-c3ccc(Cl)cc3)nn2-c2ncccn2)CC[C@@H]1c1ccccc1 (mixture of isomers) [Example 13] | 1.3 |  | 
9 | O=S(=O)(CCC(F)(F)F)N1CCCC(c2cc(-c3ccc(F)cc3)nn2-c2ncccn2)C1 (stereo not shown) [Example 109] | 4.5 |  | 
10 | Clc1ccc(-c2cc(C3CNC(CCc4ccccc4)CO3)n(-c3ncccn3)n2)cc1 (single isomer, unassigned) [Example 8, 2-[3-(4-Chlorophenyl)-1-(pyrimidin-2-yl)-1H-pyrazol-5-yl]-5-(2-phenylethyl)morpholine] | 12 |  | 
11 | Fc1ccc(-c2cc([C@@H]3CC[C@H](CCc4ccccc4)NC3)n(-c3ncccn3)n2)cc1 (racemic) [Example 6, 2-{3-(4-Fluorophenyl)-5-[6-(2-phenylethyl)piperidin-3-yl]-1H-pyrazol-1-yl}pyrimidine] | 2.1 |  | 
12 | O=C(Cc1ccccc1C(F)(F)F)N1CCCC(c2cc(-c3ccc(F)cc3)nn2-c2ncccn2)C1 (stereo not shown) [Example 20] | 0.65 |  | 
